Data published in patent US20240368133A1, “Compounds for the Treatment of Pain, in Particular, Neuropathic Pain, and/or Other Diseases or Disorders that are Associated with AT2R and/or AT2R Mediated Signaling” (Confo Therapeutics N.V., priority 2021, published 2024).

Experiments:
[1] = PAMPA (Parallel Artificial Membrane Permeability Assay), GIT model; assay type: in vitro ADME
Description: The Parallel Artificial Membrane Permeability Assay (PAMPA) is used as an in vitro model of passive, transcellular permeation. PAMPA eliminates the added complexities of active transport, allowing ranking compounds just based on a simple membrane permeability property. This simple assay also allows evaluation of permeability over a large pH range, which is valuable for a preliminary understanding of how orally delivered compounds might be absorbed across the entire gastrointestinal tract. Depending upon the types of lipids used and other experimental conditions, PAMPA may be designed to model absorption in gastrointestinal tract (PAMPA-GIT), blood-brain barrier penetration (PAMPA-BBB) or skin penetration (Skin PAMPA).
All steps of the PAMPA were carried out according to pION Inc. PAMPA Explorer™ Manual. The main principle of the assay is the incubation of compound in donor chamber (a well in Donor Plate) with aqueous buffer, which is separated from acceptor chamber (a well in Acceptor Plate) with another buffer by a phospholipid or hydrocarbon membrane fixed on a filter support. After the test, concentrations in the corresponding donor and acceptor wells are measured and permeability is calculated.
GIT model was simulated using GIT-0 phospholipid mix. Verapamil and quinidine (high permeability) and ranitidine (low permeability) were used as reference compounds. All compounds were tested in triplicates.
Solutions of the test and reference compounds were added into the Donor Plate wells in Prisma HT buffer (pH 7.4). Acceptor Sink Buffer was added into each well of the Acceptor Plate. Incubation was done at room temperature for 4 hours without stirring. After incubation, aliquots from both plates were transferred to optic UV-Vis plates and optic plates were read on microplate reader in absorbance mode in the range of 202-500 nm with 4 nm step. Compounds with low UV-Vis signal were detected by LC-MS/MS method (API 3000 (PE Sciex)). Both the positive and negative ion modes of the TurboIonSpray ion source were used. Acquisition and analysis of the data were performed using Analyst 1.5.2 software (PE Sciex). The apparent permeability coefficient was calculated according to the equation shown below:
with: • VD=volume of transport buffer in donor compartment • A=surface area of the lipids in the insert (effective growth area of the insert—0.3 sq.cm) • t=time of the assay, seconds • Cdon=final concentration of test compound in the donor compartment • Cref=starting concentration of test compound in the donor compartment • εa=apparent filter porosity, equals to 0.76
[formula] • Cacc=final concentration of test compound in the […] compartment • τss=steady state lag time, estimated as (54RM+1)×60 s
Values of Cdon/Cref and Cacc/Cref are practically calculated using optical absorbance data. Mass retention by the lipid membrane is a normal condition in PAMPA assays for hydrophobic compounds but high levels of the mass retention makes compounds more permeable in vivo than it could be predicted from PAMPA assay. Mass retention was calculated as follows:
• [drug]acc=final OD of test compound in acceptor well • [drug]d=starting OD of test compound in a donor well • [drug]fd=final OD of test compound in a donor well

[2] = Plasma protein binding (equilibrium dialysis), rat; assay type: in vitro ADME; settings: for fraction unbound: equilibrium dialysis, read-out: PPB (%), rat (converted); for recovery: plasma (undiluted, freshly thawed), PPB assay recovery
Description: The assay was performed in a multiple-use 96-well dialysis unit (HTD96b dialyzer). Each individual well unit consisted of 2 chambers separated by a vertically aligned dialysis membrane of predetermined pore size (MWCO 12-14 kDa). 120 μl of non-diluted freshly thawed mouse, rat or human plasma spiked with the compound (1 μM, final DMSO concentration 1%) was added to one chamber and the same volume of PBS buffer pH 7.4 to the other chamber. HTD96b dialyzer was covered with adhesive sealing film and incubated at 37° C., shaking at 100 rpm for 5 hours.
For samples preparation, an aliquot of the content of each chamber had been mixed with the same volume of the blank opposite matrix. In order to define non-specific loss of the compound during this assay, a standard solution was created by mixing an aliquot of spiked plasma with blank buffer without dialysis. Samples were diluted 10-fold with 100% acetonitrile with subsequent plasma proteins sedimentation by centrifuging at 6000 rpm for 5 minutes. Supernatants were analyzed using HPLC system coupled with tandem mass spectrometer (API3000 PE Sciex). Acquisition and analysis of the data were performed using Analyst 1.5.2 software (PE Sciex). The percentage of plasma protein bound compound and recovery were calculated using following equations: […]
Prior to the start of the experiment, dialysis membranes (membrane strips, MW cut-off 12-14 kDa, HTDialysis, Cat.NoJl 101) are soaked in deionized water for 60 min, transferred and left overnight in 20% EtOH. The day of experiment, a 10 mM stock solution of the compound in DMSO is diluted with a factor 10 in DMSO. This solution is further diluted in freshly thawed human, rat, mouse or dog plasma (BioIVT) with a final concentration of 5 μM and final DMSO concentration of 0.5%.
From this solution, an aliquot of 50 μL was taken and matrix matched with an equivalent volume of PBS for the recovery plate, after which 6 volumes of STOP solution were added to the recovery plate. For these recovery plates, no incubation is done.
Equilibrium Dialysis Device (96-well, model HTD96b, HTDialysis, Cat. No. #1006) is assembled according to manufacturer's instructions. Immediately after assembly, a volume of 100 μL of plasma (spiked with compound) is placed on one side of the well and another 100 μL of blank PBS buffer are added to the other side, respectively. Each compound is tested in duplicate. Acebutolol and Nicardipine are used as low and very high binding controls, except for the mouse, Caffeine is used as low binder instead Acebutolol. If the PPB values for these controls are not in the range determined by the historical data, the assay is not validated.
The plate is incubated for 4 h at 37° C. while shaking at 230 rpm. Thereafter, an aliquot of 50 μL is taken from each side of the well and matrix matched (mix of equal volumes of spiked plasma with blank PBS buffer and samples from buffer compartment with blank plasma). Matrix matched samples are further mixed with 3 volumes of STOP solution (acetonitrile/MeOH 2/1 with diclofenac as internal standard). After brief mixing and centrifugation (at 2400 rpm for 15 min, at +4° C.), the supernatant is filtered and transferred into new 96-well plates for analysis on LC-MS/MS (systems API4000).
The percentage of plasma protein bound compound and recovery were calculated using following equations:
with: • Cplasma=peak area of the compound in the plasma/peak area of the IS in the plasma • Cbuffer=peak area of the compound in the buffer/peak area of the IS in the buffer • ‘Concentration’ is the ratio between compound and IS peak areas
The recovery is a control, which allows to be sure that the compound has not a non-specific binding to the plates or is not stable in the plasma in these conditions: […]

Structure (SMILES) | Mass retention (%) [1] [%] | Permeability Papp, Log10 (10^−6 cm/s) [1] | fraction unbound [2] | recovery [2] [%]
CCCCOC(=O)NS(=O)(=O)c1ccc(C(F)(F)F)cc1N1CCN(Cc2nc3ccccc3n2C)CC1 [Compound A-09, butyl N-[2-[4-[(1-methylbenzimidazol-2-yl)methyl]piperazin-1-yl]-4-(trifluoromethyl)phenyl]sulfonylcarbamate] | 10 | <−7 Log10 (10^−6 cm/s) | – | –
CCCCNC(=O)NS(=O)(=O)c1ccc(C(F)(F)F)cc1N1CCN(Cc2nc3ccccc3n2C)CC1 [Compound A-10, 1-butyl-3-[2-[4-[(1-methylbenzimidazol-2-yl)methyl]piperazin-1-yl]-4-(trifluoromethyl)phenyl]sulfonyl-urea] | 8 | <−7 Log10 (10^−6 cm/s) | – | –
CCCCNC(=O)NS(=O)(=O)c1ccc(C)cc1N1CCN(Cc2nc3ccccc3n2C)CC1 [Compound A-12, 1-butyl-3-[4-methyl-2-[4-[(1-methylbenzimidazol-2-yl)methyl]piperazin-1-yl]phenyl]sulfonyl-urea] | 7 | <−7 Log10 (10^−6 cm/s) | – | –
CC(C)Cc1ccc(-c2nn[nH]n2)c(N2CCN(Cc3nc4ccccc4n3C)CC2)c1 [Compound A-20, 2-[[4-[5-isobutyl-2-(2H-tetrazol-5-yl)-phenyl]piperazin-1-yl]methyl]-1-meth-yl-benzimidazole] | 28 | <−7 Log10 (10^−6 cm/s) | – | –
CC(C)Oc1ccc(-c2nn[nH]n2)c(N2CCN(Cc3nc4ccccc4n3C)CC2)c1 [Compound A-24, 2-[[4-[5-isopropoxy-2-(2H-tetrazol-5-yl)phenyl]piperazin-1-yl]methyl]-1-methyl-benzimidazole] | 24 | <−7 Log10 (10^−6 cm/s) | – | –
CC(C)Cc1ccc(-c2nn[nH]n2)c(N2CCN(Cc3nc4ccccc4c(=O)[nH]3)CC2)c1 [Compound A-31, 2-[[4-[5-isobutyl-2-(2H-tetrazol-5-yl)phenyl]piperazin-1-yl]methyl]-3H-quinazolin-4-one] | – | – | < 0.1 | 84
CC(C)Oc1ccc(-c2nn[nH]n2)c(N2CCN(Cc3nc4ccccc4c(=O)[nH]3)CC2)c1 [Compound A-32] | 20 | −4.6 Log10 (10^−6 cm/s) | – | –
CC(C)Oc1ccc(-c2nn[nH]n2)c(N2CCN(Cc3nc4ccccc4s3)CC2)c1 [Compound A-51, 2-[[4-[5-isoprop-oxy-2-(2H-tetrazol-5-yl)phenyl]piper-azin-1-yl]methyl]-1,3-benzothiazole] | 14 | −4.2 Log10 (10^−6 cm/s) | – | –
CC(C)Cc1ccc(-c2nn[nH]n2)c(N2CCN(Cc3cccnn3)CC2)c1 [Compound A-90, 3-[[4-[5-isobutyl-2-(2H-tetrazol-5-yl)phenyl]piperazin-1-yl]methyl]pyridazine] | – | – | 0.23 | 105
CC(C)Cc1cc(F)c(-c2nn[nH]n2)c(N2CCN(Cc3cccnn3)C(C)C2)c1 (centres unmarked) [Compound A-173, 3-[[4-[3-fluoro-5-isobutyl-2-(2H-tetrazol-5-yl)phenyl]-2-methyl-piperazin-1-yl]methyl]pyridazine] | – | – | 0.19 | 100
CC(C)Cc1cc(F)c(-c2nn[nH]n2)c(N2CCN(Cc3cccnn3)[C@@H](C)C2)c1 [Compound A-174, 3-[[(2S)-4-[3-fluoro-5-isobutyl-2-(2H-tetrazol-5-yl)phenyl]-2-methyl-piperazin-1-yl]methyl]pyridazine] | 0 | −5.5 Log10 (10^−6 cm/s) | 0.017 | 90
CCC1CN(c2cc(CC(C)C)cc(F)c2-c2nn[nH]n2)CCN1Cc1cccnn1 (centres unmarked) [Compound A-178, 3-[[2-ethyl-4-[3-fluoro-5-isobutyl-2-(2H-tetrazol-5-yl)phenyl]piperazin-1-yl]methyl]pyridazine] | – | – | 0.12 | 96
CCC1CN(Cc2cccnn2)CCN1c1cc(CC(C)C)cc(F)c1-c1nn[nH]n1 (centres unmarked) [Compound A-181, 3-[[3-ethyl-4-[3-fluoro-5-isobutyl-2-(2H-tetrazol-5-yl)phenyl]piperazin-1-yl]methyl]pyridazine] | – | – | 0.12 | 96
CC(C)Cc1cc(F)c(-c2nn[nH]n2)c(N2CC(C)N(Cc3cccnn3)CC2C)c1 (centres unmarked) [Compound A-183, 3-[[4-[3-fluoro-5-isobutyl-2-(2H-tetrazol-5-yl)phen-yl]-2,5-dimethyl-piperazin-1-yl]-methyl]pyridazine] | – | – | 0.23 | 92
CC(C)Cc1cc(F)c(-c2nn[nH]n2)c(N2CCN(Cc3ccccn3)[C@@H](C)C2)c1 [Compound A-217, (2S)-4-[3-fluoro-5-isobutyl-2-(2H-tetrazol-5-yl)phenyl]-2-methyl-1-(2-pyridylmethyl)piperazine] | – | – | 0.004 | 98
